# pIC50: −log10 of the molar value.
# How the values were obtained:
# Liver microsome [1] = assay: Intrinsic clearance in human liver microsomes at 1 uM by LC-MS/MS analysis in absence of NADPH; type: ADME
# [2] = target: Tyrosine-protein kinase BTK (Mus musculus, UniProt P35991); assay: Inhibition of BTK in Balb/c mouse B cells assessed as inhibition of anti-IgM-stimulated CD86 expression by flow cytometry; type: cell-based
# Liver microsome [3] = assay: Intrinsic clearance in human liver microsomes at 1 uM by LC-MS/MS analysis in presence of NADPH; type: ADME
# Hepatocyte = assay: Intrinsic clearance in human hepatocytes at 1 uM by LC-MS/MS analysis; type: ADME, cell-based
# [4] = target: Tyrosine-protein kinase BTK (Homo sapiens, UniProt Q06187); assay: Inhibition of BTK (unknown origin) by Lanthascreen assay
# Sequence of Tyrosine-protein kinase BTK (Homo sapiens, UniProt Q06187) (Q06187 whole entry): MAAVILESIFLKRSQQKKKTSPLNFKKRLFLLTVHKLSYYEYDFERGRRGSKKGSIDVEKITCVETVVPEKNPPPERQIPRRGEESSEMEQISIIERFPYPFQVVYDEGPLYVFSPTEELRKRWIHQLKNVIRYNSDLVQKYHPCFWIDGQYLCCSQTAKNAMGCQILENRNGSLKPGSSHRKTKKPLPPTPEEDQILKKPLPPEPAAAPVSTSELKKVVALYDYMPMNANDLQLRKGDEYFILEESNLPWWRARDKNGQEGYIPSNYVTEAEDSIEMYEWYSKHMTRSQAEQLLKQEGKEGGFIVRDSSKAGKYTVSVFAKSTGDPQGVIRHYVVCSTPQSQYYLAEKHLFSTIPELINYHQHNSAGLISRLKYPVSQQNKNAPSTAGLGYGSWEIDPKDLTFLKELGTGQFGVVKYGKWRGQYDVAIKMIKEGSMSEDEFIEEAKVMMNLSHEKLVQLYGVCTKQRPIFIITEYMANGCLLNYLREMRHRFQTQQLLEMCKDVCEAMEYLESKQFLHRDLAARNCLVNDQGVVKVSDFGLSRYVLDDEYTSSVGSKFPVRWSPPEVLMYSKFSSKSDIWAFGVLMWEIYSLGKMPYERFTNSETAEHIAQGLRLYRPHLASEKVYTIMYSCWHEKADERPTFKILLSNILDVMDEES
# Sequence of Tyrosine-protein kinase BTK (Mus musculus, UniProt P35991) (P35991 whole entry): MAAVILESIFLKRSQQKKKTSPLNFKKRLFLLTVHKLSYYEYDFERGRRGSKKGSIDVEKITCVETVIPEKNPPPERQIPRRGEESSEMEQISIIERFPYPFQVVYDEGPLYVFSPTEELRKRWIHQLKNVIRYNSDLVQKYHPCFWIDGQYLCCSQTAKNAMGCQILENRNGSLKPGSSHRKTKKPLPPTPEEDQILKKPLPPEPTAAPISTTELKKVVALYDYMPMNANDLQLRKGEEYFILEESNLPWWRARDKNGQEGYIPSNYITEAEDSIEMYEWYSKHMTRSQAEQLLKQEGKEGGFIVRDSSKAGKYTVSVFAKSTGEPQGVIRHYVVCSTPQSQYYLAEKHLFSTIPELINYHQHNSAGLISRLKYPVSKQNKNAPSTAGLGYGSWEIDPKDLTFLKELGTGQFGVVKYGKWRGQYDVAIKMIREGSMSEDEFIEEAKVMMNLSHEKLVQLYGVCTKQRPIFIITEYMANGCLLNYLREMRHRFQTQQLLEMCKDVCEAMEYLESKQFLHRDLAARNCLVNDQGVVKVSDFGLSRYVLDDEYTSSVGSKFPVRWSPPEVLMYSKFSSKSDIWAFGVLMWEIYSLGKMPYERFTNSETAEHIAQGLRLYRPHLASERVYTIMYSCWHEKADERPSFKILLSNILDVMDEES
Compound,CLH (Liver microsome [1]) [mL/min/kg],pIC50 [2],CLH (Liver microsome [3]) [mL/min/kg],CLH (Hepatocyte) [mL/min/kg],pIC50 [4]
CN1CCN(C)C(c2ccc(Nc3nc(-c4ccc(Cl)c(NC(=O)c5cc6c(s5)CCCC6)c4Cl)cn(C)c3=O)cc2)C1=O (racemic),6,,,,
CN1CCN(C)C(c2ccc(Nc3nc(-c4ccc(F)c(NC(=O)c5cc6c(s5)CCCC6)c4)cn(C)c3=O)cc2)C1=O (stereo in doubt; 8),6,,,,
CN1CCN(C)C(c2ccc(Nc3nc(-c4cccc(NC(=O)c5cc6c(s5)CCCC6)c4F)cn(C)c3=O)cc2)C1=O (racemic),> 15,,,,
Cc1c(-c2cn(C)c(=O)c(Nc3ccc(C4C(=O)N(C)CCN4C)cc3)n2)ccc(F)c1NC(=O)c1cc2c(s1)CCCC2 (stereo in doubt; 13),6,,,,
Cc1c(-c2cc(Nc3cc4n(n3)CCN(C)C4)c(=O)[nH]n2)ccc(F)c1NC(=O)c1cc2cccnc2s1,6,6.13,6,,
CN1CCN(C)C(c2ccc(Nc3nc(-c4ccc(C#N)c(NC(=O)c5cc6c(s5)CCCC6)c4)cn(C)c3=O)cc2)C1=O (racemic),< 6,,,,
Cc1ccc(-c2cn(C)c(=O)c(Nc3ccc(C4C(=O)N(C)CCN4C)cc3)n2)c(C)c1NC(=O)c1cc2c(s1)CCCC2 (racemic),< 6,,,,
CN1CCn2nc(Nc3cc(-c4ccc(F)c(NC(=O)c5cc6ccccc6s5)c4F)n[nH]c3=O)cc2C1,,7.74,> 15,6,
CN1CCn2nc(Nc3cc(-c4ccc(F)c(NC(=O)c5cc6ccccc6s5)c4)n[nH]c3=O)cc2C1,< 6,7.30,> 15,> 15,
CN1CCN(C)C(c2ccc(Nc3nc(-c4ccc(Cl)c(NC(=O)c5cc6c(s5)CCCC6)c4)cn(C)c3=O)cc2)C1=O (racemic),6,,,,
Cc1ccc(-c2cc(Nc3cc4n(n3)CCN(C)C4)c(=O)[nH]n2)c(C)c1NC(=O)c1cc2ccccc2s1,< 6,6.41,> 15,,
Cc1c(NC(=O)c2cc3c(s2)CCCC3)cccc1-c1cn(C)c(=O)c(Nc2ccc([C@@H]3C(=O)N(C)CCN3C)cc2)n1,> 15,,,,
CN1CCN(C)C(c2ccc(Nc3nc(-c4ccc(Cl)c(NC(=O)c5cc6c(s5)CCCC6)c4F)cn(C)c3=O)cc2)C1=O (configuration not stated),< 6,,,,
Cc1c(-c2cn(C)c(=O)c(Nc3ccc(C4C(=O)N(C)CCN4C)cc3)n2)ccc(F)c1NC(=O)c1cc2c(s1)CCCC2 (stereo in doubt; 14),< 6,,,,
Cc1ccc(-c2cn(C)c(=O)c(Nc3ccc(C4C(=O)N(C)CCN4C)cc3)n2)c(Cl)c1NC(=O)c1cc2c(s1)CCCC2 (configuration not stated),< 6,,,,
Cc1ccc(-c2cn(C)c(=O)c(Nc3ccc([C@@H]4C(=O)N(C)CCN4C)cc3)n2)c(F)c1NC(=O)c1cc2c(s1)CCCC2,< 6,,,,
CN1CCN(C)C(c2ccc(Nc3nc(-c4ccc(F)c(NC(=O)c5cc6c(s5)CCCC6)c4)cn(C)c3=O)cc2)C1=O (stereo in doubt; 7),< 6,,,,
Cc1c(-c2cc(Nc3cc4n(n3)CCN(C)C4)c(=O)[nH]n2)ccc(F)c1NC(=O)c1cnc(C(C)(C)C)cn1,6,7.05,6,6,8.40
CN1CCN(C)C(c2ccc(Nc3nc(-c4cccc(NC(=O)c5cc6c(s5)CCCC6)c4Cl)cn(C)c3=O)cc2)C1=O (racemic),> 15,,,,
Cc1c(-c2cc(Nc3cc4n(n3)CCN(C)C4)c(=O)[nH]n2)ccc(F)c1NC(=O)c1cc2ncccc2s1,6,6.17,6,6,
Cc1ccc(-c2cn(C)c(=O)c(Nc3ccc([C@H]4C(=O)N(C)CCN4C)cc3)n2)c(F)c1NC(=O)c1cc2c(s1)CCCC2,< 6,,,,
CN1CCN(C)C(c2ccc(Nc3nc(-c4ccc(F)c(NC(=O)c5cc6c(s5)CCCC6)c4F)cn(C)c3=O)cc2)C1=O (configuration not stated),6,,,,
Cc1c(-c2cn(C)c(=O)c(Nc3ccc(C4C(=O)N(C)CCN4C)cc3)n2)ccc(Cl)c1NC(=O)c1cc2c(s1)CCCC2 (racemic),6,,,,
Cc1c(-c2cc(Nc3cc4n(n3)CCN(C)C4)c(=O)[nH]n2)ccc(F)c1NC(=O)c1ccc(C(C)(C)C)cc1,6,7.27,> 15,6,8.40
Cc1c(NC(=O)c2cc3ccccc3s2)cccc1-c1cc(Nc2cc3n(n2)CCN(C)C3)c(=O)[nH]n1,> 15,7.39,> 15,,
Cc1ccc(-c2cc(Nc3cc4n(n3)CCN(C)C4)c(=O)[nH]n2)c(F)c1NC(=O)c1cc2ccccc2s1,6,6.70,6,,7.96
CN1CCN(C)C(c2ccc(Nc3nc(-c4cccc(NC(=O)c5cc6c(s5)CCCC6)c4)cn(C)c3=O)cc2)C1=O (racemic),> 15,,,,
